Source: PMC6695897, “Synthesis and In Vitro Screening of Novel Heterocyclic β-D-Gluco- and β-D-Galactoconjugates as Butyrylcholinesterase Inhibitors” (Molecules, 2019)
Like-named read-outs stand apart in the source and are kept apart here.

Molecular target: T1, horse serum butyrylcholinesterase (BChE) (Equus caballus, UniProt P81908)
T1 construct: native enzyme from horse serum, lyophilised, commercial (Sigma-Aldrich), untagged
Test: Ellman assay, global fit to mixed inhibition model
Format: biochemical
Details: for Ki: read-out: Ki ± SEM (μM) ^1
Source text: Ellman assay, global fit to mixed inhibition model on horse serum butyrylcholinesterase (BChE)

T1 sequence (P81908 whole entry): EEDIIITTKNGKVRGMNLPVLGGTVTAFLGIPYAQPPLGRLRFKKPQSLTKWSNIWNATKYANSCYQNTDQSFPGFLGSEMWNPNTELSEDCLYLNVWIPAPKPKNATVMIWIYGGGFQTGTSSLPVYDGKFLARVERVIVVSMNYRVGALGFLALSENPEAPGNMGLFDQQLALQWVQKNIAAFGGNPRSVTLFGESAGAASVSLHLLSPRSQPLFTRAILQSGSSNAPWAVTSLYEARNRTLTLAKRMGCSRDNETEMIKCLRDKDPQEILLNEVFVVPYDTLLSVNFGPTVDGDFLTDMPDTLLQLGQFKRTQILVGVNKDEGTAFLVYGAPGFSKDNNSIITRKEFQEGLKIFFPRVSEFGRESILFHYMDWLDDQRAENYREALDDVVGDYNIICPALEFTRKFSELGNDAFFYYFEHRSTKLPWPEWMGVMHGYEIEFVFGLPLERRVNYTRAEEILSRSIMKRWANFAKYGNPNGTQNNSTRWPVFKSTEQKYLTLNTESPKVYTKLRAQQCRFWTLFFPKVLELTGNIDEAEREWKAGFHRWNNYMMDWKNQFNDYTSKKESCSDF

Structure (SMILES)	Ki	other results
OC[C@H]1O[C@@H](OCCn2cnc3ccccc32)[C@H](O)[C@@H](O)[C@@H]1O [compound 5, N1-[2-(β-D-glucopyranozyloxy)ethyl]benzimidazole]		Ki (acetylthiocholine 0.04–1 mM, DTNB 0.3 mM, 0.1 M sodium phosphate pH 7.4, 25 °C, mixed): 16 ± 1.6 µM
OC[C@H]1O[C@@H](OCC[n+]2cn(Cc3ccccc3)c3ccccc32)[C@H](O)[C@@H](O)[C@@H]1O [compound 7, N1-benzyl-N3-[2-(β-D-glucopyranozyloxy)ethyl]benzimidazolium bromide]	52 ± 3 µM	
OC[C@H]1O[C@@H](OCCn2cnc3ccccc32)[C@H](O)[C@@H](O)[C@H]1O [compound 12, N1-[2-(β-D-galactopyranozyloxy)ethyl]benzimidazole]		Ki ± SEM (μM) ^1 (acetylthiocholine 0.04–1 mM, DTNB 0.3 mM, 0.1 M sodium phosphate pH 7.4, 25 °C, unreliable (extrapolated beyond tested 15–170 μM)): 782 ± 306 µM
OC[C@H]1O[C@@H](OCC[n+]2cn(Cc3ccccc3)c3ccccc32)[C@H](O)[C@@H](O)[C@H]1O [compound 14, N1-benzyl-N3-[2-(β-D-galactopyranozyloxy)ethyl]benzimidazolium bromide]	26 ± 2.7 µM	
